Results published in patent publication US7674887B2, “Thrombopoietin mimetics” (GlaxoSmithKline LLC, priority 2000, dated 2010).

What was measured:
human UT7TPO cell line = experiment: Proliferation assay using the human UT7TPO cell line; format: cell-based; conditions: UT7TPO cells
Source text: Proliferation Assay Some of the more preferred compounds of this invention were active in an in vitro proliferation assay using the human UT7TPO cell line. UT7TPO cells are a human megakaryoblastic cell line that express Tpo-R, whose survival and growth is dependent on the presence of TPO (Komatsu et al. Blood 1996, 87,4552).

| melting point | SMILES | EC50 (human UT7TPO cell line; Homo sapiens, UT7/TPO) [nM] | activity relative to TPO in the proliferation assay (human UT7TPO cell line) [% TPO] |
| --- | --- | --- | --- |
| 280 °C (dec.) | CC1=NN(c2ccc(C)c(C)c2)C(=O)C1=NNc1ccc(-c2ccc(C(=O)O)cc2)cc1O (hydrate or solvate) [Example 1, 4′-{N′-[1-(3,4-dimethylphenyl)-3-methyl-5-oxo-1,5-dihydropyrazol-4-ylidene]hydrazino}-3′-hydroxybiphenyl-4-carboxylic acid] |  |  |
| 145 °C (dec.) | CC1=NN(c2ccc(C(C)(C)C)cc2)C(=O)C1=NNc1cccc(-c2cccc(C(=O)O)c2)c1O (hydrate or solvate) [Example 4, 3′-{N′-[1-(4-tert-butylphenyl)-3-methyl-5-oxo-1,5-dihydropyrazol-4-ylidene]hydrazino}-2′-hydroxybiphenyl-3-carboxylic acid] |  |  |
| 282 °C (dec.) | CC1=NN(c2ccc(C)c(C)c2)C(=O)C1=NNc1ccc(-c2cccc(C(=O)O)c2)cc1O [Example 2, 4′-{N′-[1-(3,4-dimethylphenyl)-3-methyl-5-oxo-1,5-dihydropyrazol-4-ylidene]hydrazino}-3′-hydroxybiphenyl-3-carboxylic acid] |  |  |
|  | CC1=NN(c2ccc(C)c(C)c2)C(=O)C1=NNc1cccc(-c2cccc(C(=O)O)c2)c1O [Example 3, 3′-{N′-[1-(3,4-dimethylphenyl)-3-methyl-5-oxo-1,5-dihydropyrazol-4-ylidene]hydrazino}-2′-hydroxybiphenyl-3-carboxylic acid] | 30 | 100 |
| 210 °C (dec.) | Cc1ccc(N2N=C(Cl)C(=NNc3cccc(-c4cccc(C(=O)O)c4)c3O)C2=O)cc1C [Example 24, 3′-{N′-[3-Chloro-1-(3,4-dimethylphenyl)-5-oxo-1,5-dihydropyrazol-4-ylidene]hydrazino}-2′-hydroxybiphenyl-3-carboxylic acid] |  |  |
